Test results: ChEMBL document CHEMBL1139537, “Examination of phosphoryl-mimicking functionalities within a macrocyclic Grb2 SH2 domain-binding platform” (J Med Chem, 2005)

Assays:
[1] = target: T1, Growth factor receptor-bound protein 2 (Homo sapiens, UniProt P62993); assay: Inhibitory concentration against growth factor receptor bound protein 2
[2] = target: T1, Growth factor receptor-bound protein 2; assay: Dissociation constant value against growth factor receptor bound protein 2
[3] = target: T1, Growth factor receptor-bound protein 2; assay: Binding off-rate against growth factor receptor bound protein 2
[4] = target: T1, Growth factor receptor-bound protein 2; assay: Binding on-rate against growth factor receptor bound protein 2

Compound	IC50 [1] [nM]	Kd [2] [nM]	koff [3] [s⁻¹]	Ka [4] [M⁻¹ s⁻¹]
Cc1ccc2c(ccn2C[C@@H]2C/C=C/[C@H](c3ccc([N+](=O)[O-])cc3)[C@H](CC(=O)O)C(=O)NC3(CCCCC3)C(=O)N[C@@H](CC(N)=O)C(=O)NC2)c1	–	> 1000	–	–
Cc1ccc2c(ccn2C[C@@H]2C/C=C/[C@H](c3ccc(CP(=O)(O)O)cc3)[C@H](CC(=O)O)C(=O)NC3(CCCCC3)C(=O)N[C@@H](CC(N)=O)C(=O)NC2)c1	15	1.47	0.00801	5.46e+06
Cc1ccc2c(ccn2C[C@@H]2C/C=C/[C@H](c3ccc(CP(C)(=O)O)cc3)[C@H](CC(=O)O)C(=O)NC3(CCCCC3)C(=O)N[C@@H](CC(N)=O)C(=O)NC2)c1	6.3	16.2	0.00988	–
Cc1ccc2c(ccn2C[C@@H]2C/C=C/[C@H](c3ccc(CP(=O)(O)Cc4ccccc4)cc3)[C@H](CC(=O)O)C(=O)NC3(CCCCC3)C(=O)N[C@@H](CC(N)=O)C(=O)NC2)c1	8.4	35.3	0.00512	–

Other lines, results leading:

IC50 [1] [nM]	Kd [2] [nM]	koff [3] [s⁻¹]	Ka [4] [M⁻¹ s⁻¹]	Compound
8.8	67	0.0508	–	Cc1ccc2c(ccn2C[C@@H]2C/C=C/[C@H](c3ccc(NC(=O)C(=O)O)cc3)[C@H](CC(=O)O)C(=O)NC3(CCCCC3)C(=O)N[C@@H](CC(N)=O)C(=O)NC2)c1
22.5	33	0.0101	–	Cc1ccc2c(ccn2C[C@@H]2C/C=C/[C@H](c3ccc(CC(=O)O)cc3)[C@H](CC(=O)O)C(=O)NC3(CCCCC3)C(=O)N[C@@H](CC(N)=O)C(=O)NC2)c1
3.3	3.62	0.0227	–	Cc1ccc2c(ccn2C[C@@H]2C/C=C/[C@H](c3ccc(C(C(=O)O)C(=O)O)cc3)[C@H](CC(=O)O)C(=O)NC3(CCCCC3)C(=O)N[C@@H](CC(N)=O)C(=O)NC2)c1
–	> 1000	–	–	Cc1ccc2c(ccn2C[C@@H]2C/C=C/[C@H](c3ccc(O)cc3)[C@H](CC(=O)O)C(=O)NC3(CCCCC3)C(=O)N[C@@H](CC(N)=O)C(=O)NC2)c1
